Measurements taken from patent EP3723746B1, “PHENOXY ACIDS FOR THE TREATMENT OF NEUROMUSCULAR DISORDERS” (NMD Pharma A/S, priority 2017, dated 2019).

Tests used:
[1] = system: Lewis rats; experiment: Measurement of in situ muscle contractile characteristics (isometric hindlimb force under cisatracurium block); format: in vivo; conditions: 40 mg/kg i.v., cisatracurium infusion, 3 experiments
Protocol: Isometric hindlimb force was measured in 12-week old female Lewis rats in the presence and absence of compound.
Rats were placed under anesthesia with isoflurane (2-4%), intubated and subsequently connected to a micro ventilator (Microvent 1, Hallowell EMC, US). Two stimulation electrodes were inserted through the skin to stimulate the sciatic nerve. A small incision was made proximal to the ankle, to expose the Achilles tendon, which was tied by cotton string, and connected to a force transducer (Fort250, World Precision Instruments) with adjustable position (Vernier control). The Achilles tendon was then cut distal to the attached cotton string. The rat was placed on a heated pad, and to prevent movement artefacts from contraction of the ankle dorsiflexors, the foot was fixated by tape on a footplate.
Muscle contractile properties were assessed by applying an electrical current (under supramaximal voltage conditions) to the nerve and recording the force generated by the muscle. The muscle was stretched until maximal force was obtained, when assessed by 2 Hz stimulation. Isometric force was measured every 30 seconds at 12 Hz (Twitch), 10 pulses, and at every 5 minutes at 80 Hz (Tetanic) for 1 second (80 pulses). This stimulation pattern was employed throughout the experiment, expect in few cases where 80 Hz stimulation was replaced by 12 Hz (10 pulses). […] When the level of neuromuscular inhibition was stable, the test article was injected i.v. at the chosen concentration. The effect of test article was assessed on its ability to increase force generated from the stimulation pattern applied. The effect was assessed in the ability to increase force per se (tetanic, 80 Hz, stimulation), and the ratio between individual twitch peaks (12 Hz stimulation). The effect was monitored for at least 1 hour after injection of test article. In addition, the time from injection of test article to maximal effect on force (both twitch and tetanic) was noted and the time for the effect to disappear (return to baseline), if possible. When appropriate the infusion of neuromuscular blocking agent was ceased, with the stimulation pattern continued, and the return of force to control levels was monitored. Animals were sacrificed by cervical dislocation while still fully sedated.

[2] = target: T1, CIC-1 channels (Rattus norvegicus, UniProt P35524); experiment: Electrophysiological measurement of compound inhibition of CIC-1 in rat muscle (Gm, three micro-electrode technique, soleus muscle fibres); format: cell-based; conditions: reduction of Gm in rat soleus muscle fibres, approx. 30°C; mean ± spread, n = number of experiments
T1 construct: from tissue; host or cells: whole soleus muscle of 12-14 week old Wistar rats
T1 sequence (P35524 1-994): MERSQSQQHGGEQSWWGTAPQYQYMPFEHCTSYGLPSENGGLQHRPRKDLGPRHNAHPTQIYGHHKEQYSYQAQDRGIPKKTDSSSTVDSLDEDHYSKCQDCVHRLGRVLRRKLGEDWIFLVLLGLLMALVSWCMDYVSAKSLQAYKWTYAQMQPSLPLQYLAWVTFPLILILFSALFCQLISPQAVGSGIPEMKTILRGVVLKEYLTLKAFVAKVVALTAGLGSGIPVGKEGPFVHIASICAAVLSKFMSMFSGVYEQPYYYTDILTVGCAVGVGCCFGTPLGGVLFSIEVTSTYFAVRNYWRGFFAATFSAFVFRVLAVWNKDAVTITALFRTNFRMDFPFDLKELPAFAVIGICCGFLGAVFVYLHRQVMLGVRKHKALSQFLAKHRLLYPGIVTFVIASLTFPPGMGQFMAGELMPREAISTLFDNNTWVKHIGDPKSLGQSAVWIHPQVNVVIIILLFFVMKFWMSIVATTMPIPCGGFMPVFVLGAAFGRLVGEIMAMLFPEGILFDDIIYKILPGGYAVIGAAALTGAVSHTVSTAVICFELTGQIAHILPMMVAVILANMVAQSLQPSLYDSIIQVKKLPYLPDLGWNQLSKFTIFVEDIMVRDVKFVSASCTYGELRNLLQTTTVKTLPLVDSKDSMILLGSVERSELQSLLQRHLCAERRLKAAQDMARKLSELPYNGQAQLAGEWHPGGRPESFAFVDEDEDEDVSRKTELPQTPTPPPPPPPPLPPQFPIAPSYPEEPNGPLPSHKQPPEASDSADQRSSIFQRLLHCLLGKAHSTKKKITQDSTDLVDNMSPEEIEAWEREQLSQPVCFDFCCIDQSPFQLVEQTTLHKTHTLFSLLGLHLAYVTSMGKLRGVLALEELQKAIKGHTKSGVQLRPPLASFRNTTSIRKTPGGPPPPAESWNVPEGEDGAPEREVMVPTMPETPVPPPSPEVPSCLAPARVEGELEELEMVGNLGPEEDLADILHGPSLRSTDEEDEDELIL
Description: Table 2: Inhibition of CIC-1 ion channel using compounds of the invention

EC50 [2]: 3.5 ± 0.6 µM
SMILES: C#Cc1cc(Br)ccc1O[C@@H](C)C(=O)O [Compound A-19, (2S)-2-(4-bromo-2-ethynylphenoxy)propanoic acid]
average increase in twitch peaks ([1]; 12 Hz stimulation): 9.6%
average increase in tetanic force ([1]; 80 Hz stimulation): 44.5%
